Measured values published in PMC10221320.
Positions of bridges follow the written chain, without caps; N, C: chain ends. No end group written: not given here.

Experiments:
Assay type in all cases: in vivo, mouse
CD-1 mice [1] = experiment: Open field test; conditions: for N (c.z.), number of visits to central zone / N (def), number of bowel movements / N (peeps), number of peeps into minks / N (racks), vertical activity / N (s.p.), number of visits to side platform / S (act), distance traveled during activity / S, distance traveled / T (act), activity time / T (b.z.), staying on the border zone / T (c.z.), time spent on the central zone / T (e.c.z.), time of exit from the central zone / T (pass), passivity time / V(act), average movement speed during activity / V, average travel speed: mean ± SD
Procedure: (§1) The animal studies were performed under the European Commission’s legislation (Directives 86/609/EEC, 2010/63/EU), the National Standard of the Russian Federation “Good Laboratory Practice” (GOST P 53434-2009, Moscow, Russia), and Committee on Ethics of Laboratory Animal Handling № 05/21, 20 September 2021 and 08/21, 30 December 2021 protocols (PIBOC FEB RAS). Adult female CD-1 mice weighing 25 ± 2 g were subjected to a 12 h light–dark cycle at room temperature and with ad libitum access to food and water. There were seven or eight individuals in each group.
The animal activity and anxiety-related and exploratory behaviors were estimated at the open field facility (OpenScience, Krasnogorsk, Russia). Three groups of animals were treated with peptides at doses of 0.01, 0.1 and 1 mg/kg (intravenously) 30 min before testing. The control group was injected with an identical volume (50 µL) of saline. The animals were placed in the center of the lightened arena, and the recording lasted 3 min. Using the software “Minotaur” (LLC “Neurobiotics”, Zelenograd, Russia), 14 parameters were estimated: time (T) of activity (act); passivity (pass); spent on the central zone (c.z.), staying on the border zone (b.z.); exit from the central zone (e.c.z.); average travel speed (V, m/s); average movement speed during activity (V(act)); distance traveled (S, m); distance traveled during activity (S (act)); number (N) of visits to central zone (c.z.); visits to side platform (s.p.); vertical activity (racks); peeps into minks (peeps); and bowel movements (def).

CD-1 mice [2] = experiment: Nociceptive reaction to direct hind paw pad injection; conditions: 1 mg/kg in the hind paw pad; 15 min
Procedure: as §1
For a direct Hmg 1b-4 injection (to eliminate the nociceptive reaction of potentiator of ASIC3 channels), it was dissolved in saline and administered at a dose of 1 mg/kg in the hind paw pad. The control group was injected with an identical volume (20 µL) of saline. The animals were placed individually, and a nociceptive reaction was registered for 15 min.

CD-1 mice [3] = experiment: Elevated plus maze test; conditions: for N (h-d), number of hanging-down reactions / N (racks), vertical activity / N (sap), number of stretch-attend postures / N. entries, closed arms / N. entries, open arms / S (act), distance traveled during activity / S, distance traveled / T (act), activity time / T (e.c.z.), time of exit from the central zone / T (pass), passivity time / V, average travel speed / V(act), average movement speed during activity / N. entries, central area / T., time spent in closed arms / T., time spent in central area / T., time spent in open arms: mean ± SD
Procedure: as §1
The anti-anxiety activity of the peptides was studied using the elevated plus maze (OpenScience, Krasnogorsk, Russia) test, a cruciform arena raised 50 cm above the floor, where the central platform and two arms are open and lightened, and two arms are closed with walls. Three groups of animals were treated with peptides at doses of 0.01, 0.1 and 1 mg/kg (intravenously) 30 min before testing. The control group was injected with an identical volume (50 µL) of sterile saline. Animals were placed in the center of the lightened arena and the recording lasted 5 min. Using the software “Minotaur” (LLC “Neurobiotics”, Zelenograd, Russia), 12 parameters were estimated: time (T) of activity(act); passivity (pass); spent in closed, open arms, and on the central area; exit from the central zone (e.c.z.); average travel speed (V, m/s); average movement speed during activity (V(act)); distance traveled (S, m); distance traveled during activity (S (act)); a number (N) of entries into open, closed arms, and exits to the central area (entries); vertical activity (racks); and stretch–attend posture when the animal stretches to its full length mainly using the forepaws (sap).

[4] = 0.01 mg/kg i.v. 30 min before testing, n = 7–8
[5] = 0.1 mg/kg i.v. 30 min before testing, n = 7–8
[6] = 1 mg/kg i.v. 30 min before testing, n = 7–8

## GTPCDCYGYTGVYWFMLSRCPSGYGYNLSCHYFMGICCVKR (disulfide 4-37, 6-30, 20-38 (inferred)) [Hmg 1b-4]
CD-1 mice [1]; [4]
  N (c.z.), number of visits to central zone: 12 ± 0.8
  N (def), number of bowel movements: 1.2 ± 0.2
  N (peeps), number of peeps into minks: 8.0 ± 0.5
  N (racks), vertical activity: 27.2 ± 1.9
  N (s.p.), number of visits to side platform: 13.3 ± 1.1
  S (act), distance traveled during activity: 25.0 ± 2.4 m
  S, distance traveled: 25.0 ± 1.8 m
  T (act), activity time: 113.5 ± 9.5 s
  T (b.z.), staying on the border zone: 145.4 ± 5.2 s
  T (c.z.), time spent on the central zone: 34.2 ± 2.8 s
  T (e.c.z.), time of exit from the central zone: 6.5 ± 3.1 s
  T (pass), passivity time: 64.2 ± 7.4 s
  V(act), average movement speed during activity: 0.22 ± 0.02 m/s
  V, average travel speed: 0.14 ± 0.02 m/s
CD-1 mice [1]; [5]
  N (c.z.), number of visits to central zone: 21.2 ± 6.1
  N (def), number of bowel movements: 0
  N (peeps), number of peeps into minks: 7.8 ± 2.1
  N (racks), vertical activity: 37.0 ± 7.8
  N (s.p.), number of visits to side platform: 20.1 ± 6.4
  S (act), distance traveled during activity: 24.2 ± 5.1 m
  S, distance traveled: 24.2 ± 5.1 m
  T (b.z.), staying on the border zone: 127.5 ± 10.0 s
  T (c.z.), time spent on the central zone: 53.8 ± 10.3 s
  T (e.c.z.), time of exit from the central zone: 6.1 ± 3.3 s
  T (pass), passivity time: 55.1 ± 11.1 s
  V(act), average movement speed during activity: 0.22 ± 0.03 m/s
  V, average travel speed: 0.14 ± 0.03 m/s
CD-1 mice [1]; 0.1 mg/kg i.v. 30 min before testing, n = 7–8 (SD on next line: Hmg 1b-2 10.7, Hmg 1b-4 13.1)
  T (act), activity time: 122.3 s
CD-1 mice [1]; 0.1 mg/kg i.v., vs control
  time spent in the center of the arena: increased the time the animals spent in the center of the arena
CD-1 mice [1]; [6]
  N (c.z.), number of visits to central zone: 16.8 ± 2.7
  N (def), number of bowel movements: 0.5 ± 0.7
  N (peeps), number of peeps into minks: 9.0 ± 1.5
  N (racks), vertical activity: 37.4 ± 3.9
  N (s.p.), number of visits to side platform: 16.9 ± 2.8
  S (act), distance traveled during activity: 24.6 ± 7.5 m
  S, distance traveled: 24.6 ± 2.3 m
  T (b.z.), staying on the border zone: 143.8 ± 8.2 s
  T (c.z.), time spent on the central zone: 34.9 ± 5.9 s
  T (e.c.z.), time of exit from the central zone: 6.4 ± 2.4 s
  T (pass), passivity time: 56.8 ± 9.1 s
  V(act), average movement speed during activity: 0.21 ± 0.02 m/s
  V, average travel speed: 0.14 ± 0.01 m/s
CD-1 mice [1]; 1 mg/kg i.v. 30 min before testing, n = 7–8 (SD on next line: Hmg 1b-4 10.4)
  T (act), activity time: 119.9 s
CD-1 mice [1]; 0.1 and 1 mg/kg i.v., vs control
  number of vertical stances: increased
CD-1 mice [1]; i.v.
  conclusion on CNS effect: anxiolytic effect
  effect on distance travelled and speed of movement: did not affect these options
  exploration activity (number of peeps into the holes): significantly increased the exploration activity of mice
  most effective dose on peeps into the holes: 1 mg/kg
CD-1 mice [1]; i.v., control group 50%, significant increase
  percentage of the activity time: 70%
CD-1 mice [2]
  nociceptive reaction: did not induce a nociceptive reaction
CD-1 mice [3]; [4]
  N (h-d), number of hanging-down reactions: 19 ± 6.6
  N (racks), vertical activity: 34 ± 14.3
  N (sap), number of stretch-attend postures: 15 ± 2.3
  N. entries, closed arms: 18 ± 4.8
  N. entries, open arms: 15 ± 3.3
  S (act), distance traveled during activity: 42.6 ± 8.0 m
  S, distance traveled: 44.3 ± 8.3 m
  T (act), activity time: 161.7 ± 10.6 s
  T (e.c.z.), time of exit from the central zone: 3 ± 1.5 s
  T (pass), passivity time: 137.7 ± 11.2 s
  V, average travel speed: 0.15 ± 0.03 m/s
CD-1 mice [3]; 0.01 mg/kg i.v. 30 min before testing, n = 7–8 (SD on later line: Hmg 1b-2 0.02, Hmg 1b-4 0.02)
  V(act), average movement speed during activity: 0.26 m/s
CD-1 mice [3]; 0.01 mg/kg i.v. 30 min before testing, n = 7–8 (SD on later line: Hmg 1b-2 11.3)
  N. entries, central area: 36±9.4
CD-1 mice [3]; 0.01 mg/kg i.v. 30 min before testing, n = 7–8 (SD on later line: Hmg 1b-2 35.7, Hmg 1b-4 18.7)
  T., time spent in closed arms: 180.1 s
CD-1 mice [3]; [5]
  N (h-d), number of hanging-down reactions: 20 ± 8.3
  N (racks), vertical activity: 41 ± 4.8
  N (sap), number of stretch-attend postures: 17 ± 3.6
  N. entries, central area: 38 ± 8.4
  N. entries, closed arms: 20 ± 6.6
  N. entries, open arms: 22 ± 3.5
  S (act), distance traveled during activity: 45.1 ± 6.1 m
  S, distance traveled: 46.8 ± 6.1 m
  T (act), activity time: 170.8 ± 16.1 s
  T (e.c.z.), time of exit from the central zone: 8 ± 3.6 s
  T., time spent in central area: 78.7 ± 15.3 s
  T., time spent in closed arms: 169 ± 30.2 s
  T., time spent in open arms: 84.3 ± 28.7 s
  V, average travel speed: 0.14 ± 0.02 m/s
CD-1 mice [3]; 0.1 mg/kg i.v. 30 min before testing, n = 7–8 (SD on later line: Hmg 1b-2 0.01, Hmg 1b-4 0.03)
  V(act), average movement speed during activity: 0.27 m/s
CD-1 mice [3]; 0.1 mg/kg i.v. 30 min before testing, n = 7–8 (SD on later line: Hmg 1b-2 19.8)
  T (pass), passivity time: 128 ± 15.7 s
CD-1 mice [3]; [6]
  N (h-d), number of hanging-down reactions: 18 ± 5.2
  N (racks), vertical activity: 45 ± 8.4
  N (sap), number of stretch-attend postures: 14 ± 1.8
  N. entries, central area: 29 ± 3.4
  N. entries, closed arms: 19 ± 3.3
  N. entries, open arms: 20 ± 2.5
  S (act), distance traveled during activity: 41.0 ± 7.5 m
  S, distance traveled: 43.1 ± 7.1 m
  T (act), activity time: 174 ± 17.9 s
  T (e.c.z.), time of exit from the central zone: 8 ± 6.5 s
  T., time spent in central area: 73.8 ± 14.6 s
  T., time spent in open arms: 89.6 ± 18.5 s
  V, average travel speed: 0.14 ± 0.03 m/s
CD-1 mice [3]; 1 mg/kg i.v. 30 min before testing, n = 7–8 (SD on later line: Hmg 1b-2 0.02, Hmg 1b-4 0.04)
  V(act), average movement speed during activity: 0.25 m/s
CD-1 mice [3]; 1 mg/kg i.v. 30 min before testing, n = 7–8 (SD on later line: Hmg 1b-2 21.9, Hmg 1b-4 17.7)
  T (pass), passivity time: 125.7 s
CD-1 mice [3]; 1 mg/kg i.v. 30 min before testing, n = 7–8 (SD on later line: Hmg 1b-2 32.7, Hmg 1b-4 17.2)
  T., time spent in closed arms: 160.2 s
CD-1 mice [3]; i.v.
  activity and immobility time, travelled distance and mean speed: approximately the same in all groups
  anxiolytic effect: exhibit an anxiolytic effect
  number of hangings from open sleeves: increase in the number of hangings from open sleeves
  rears number: increase
CD-1 mice [3]; i.v., control group 63%
  close area (closed arms) preference, share of time: 50%
